pIC50: −log10 of the molar value.
Biological target: T1, recombinant human GR (Homo sapiens, UniProt P04150)
T1 construct: purchased Panvera/Invitrogen P2812 (kit P2893)
T1 sequence (P04150 1-777): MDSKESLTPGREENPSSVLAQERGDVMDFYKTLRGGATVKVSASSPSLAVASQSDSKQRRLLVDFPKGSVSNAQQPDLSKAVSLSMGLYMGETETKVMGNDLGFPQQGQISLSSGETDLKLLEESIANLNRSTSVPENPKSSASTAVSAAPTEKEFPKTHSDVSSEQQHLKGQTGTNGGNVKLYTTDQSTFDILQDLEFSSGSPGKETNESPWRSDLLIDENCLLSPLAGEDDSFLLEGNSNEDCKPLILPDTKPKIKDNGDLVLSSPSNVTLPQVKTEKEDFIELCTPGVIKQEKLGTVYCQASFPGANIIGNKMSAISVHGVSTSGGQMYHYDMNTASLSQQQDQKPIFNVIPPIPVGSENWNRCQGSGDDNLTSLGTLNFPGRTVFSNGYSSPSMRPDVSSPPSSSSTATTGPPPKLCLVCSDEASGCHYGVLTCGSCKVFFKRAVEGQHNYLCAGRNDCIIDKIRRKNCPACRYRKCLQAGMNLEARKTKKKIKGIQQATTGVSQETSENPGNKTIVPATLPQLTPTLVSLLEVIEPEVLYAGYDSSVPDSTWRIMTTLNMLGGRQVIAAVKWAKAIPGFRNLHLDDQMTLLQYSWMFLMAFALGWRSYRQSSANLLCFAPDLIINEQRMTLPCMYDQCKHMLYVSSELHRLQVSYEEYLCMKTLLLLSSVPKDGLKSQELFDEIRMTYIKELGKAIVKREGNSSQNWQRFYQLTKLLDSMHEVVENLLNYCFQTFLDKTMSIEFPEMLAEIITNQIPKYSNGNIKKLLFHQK
Assay: Human Glucocorticoid Receptor (GR) Assay (fluorescence polarization, Panvera/Invitrogen kit)
Assay type: binding
Details: fluorescence polarization; GS Red tracer; 2 hours at room temperature; 100% control 10 μM Dexamethasone; read-out: Inhibition of GR binding, IC50
Procedure, shortened: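 Fluorescence polarization competition with recombinant GR and GS Red fluorescent ligand plus stabilizing peptide and DTT in potassium phosphate/sodium molybdate/EDTA buffer with DMSO. Incubated 2 hours at room temperature in the dark; 0% control DMSO, 100% control 10 μM dexamethasone.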

Row | SMILES | pIC50
1 | CC(=O)O[C@]1(C(=O)CSC(C)=O)CC[C@H]2[C@@H]3CCC4=Cc5c(cnn5-c5ccc(F)cc5)C[C@]4(C)[C@H]3[C@@H](O)C[C@@]21C [Example 123, (1R,3aS,3bS,10aR,10bS,11S,12aS)-1-[(Acetylsulfanyl)acetyl]-7-(4-fluorophenyl)-11-hydroxy-10a,12a-dimethyl-1,2,3,3a,3b,4,5,7,10,10a,10b,11,12,12a-tetradecahydrocyclopenta[5,6]naphtho[1,2-f]indazol-1-yl acetate] | 8.27
2 | CC(=O)O[C@]1(C(=O)SCC#N)CC[C@H]2[C@@H]3CCC4=Cc5c(cnn5-c5ccc(F)cc5)C[C@]4(C)[C@H]3[C@@H](O)C[C@@]21C [Example 109, (1R,3aS,3bS,10aR,10bS,11S,12aS)-1-{[(Cyanomethyl)sulfanyl]carbonyl}-7-(4-fluorophenyl)-11-hydroxy-10a,12a-dimethyl-1,2,3,3a,3b,4,5,7,10,10a,10b,11,12,12a-tetradecahydrocyclopenta[5,6]naphtho[1,2-f]indazol-1-yl acetate] | 8.39
3 | C[C@]12Cc3cnn(-c4ccc(F)cc4)c3C=C1CC[C@@H]1[C@@H]2[C@@H](O)C[C@@]2(C)[C@H]1CC[C@]2(OC(=O)c1ccco1)C(=O)SCCCO [Example 92, (1R,3aS,3bS,10aR,10bS,11S,12aS)-7-(4-Fluorophenyl)-11-hydroxy-1-{[(3-hydroxypropyl)sulfanyl]carbonyl}-10a,12a-dimethyl-1,2,3,3a,3b,4,5,7,10,10a,10b,11,12,12a-tetradecahydrocyclopenta[5,6]naphtho[1,2-f]indazol-1-yl furan-2-carboxylate] | 8.40
4 | Cc1ncsc1C(=O)O[C@]1(C(=O)SCF)CC[C@H]2[C@@H]3CCC4=Cc5c(cnn5-c5ccc(F)cc5)C[C@]4(C)[C@H]3[C@@H](O)C[C@@]21C [Example 1, (1R,3aS,3bS,10aR,10bS,11S,12aS)-1-{[(Fluoromethyl)thio]carbonyl}-7-(4-fluorophenyl)-11-hydroxy-10a,12a-dimethyl-1,2,3,3a,3b,4,5,7,10,10a,10b,11,12,12a-tetradecahydrocyclopenta[5,6]naphtho[1,2-f]indazol-1-yl 4-methyl-1,3-thiazole-5-carboxylate] | 8.12
5 | CCC(=O)O[C@]1(C(=O)SCC#N)CC[C@H]2[C@@H]3C[C@H](C)C4=Cc5c(cnn5-c5ccc(F)cc5)C[C@]4(C)[C@H]3[C@@H](O)C[C@@]21C [Example 213, (1R,3aS,3bS,5S,10aR,10bS,11S,12aS)-1-{[(Cyanomethyl)sulfanyl]carbonyl}-7-(4-fluorophenyl)-11-hydroxy-5,10a,12a-trimethyl-1,2,3,3a,3b,4,5,7,10,10a,10b,11,12,12a-tetradecahydrocyclopenta[5,6]naphtho[1,2-f]indazol-1-yl propanoate] | 7.96
6 | C[C@]12Cc3cnn(-c4ccc(F)nc4)c3C=C1CC[C@H]1[C@@H]3CC[C@](OC(=O)c4ccco4)(C(=O)SCC#N)[C@@]3(C)C[C@H](O)[C@@]12F [Example 211, (1R,3aS,3bS,10aS,10bR,11S,12aS)-1-{[(Cyanomethyl)sulfanyl]carbonyl}-10b-fluoro-7-(6-fluoropyridin-3-yl)-11-hydroxy-10a,12a-dimethyl-1,2,3,3a,3b,4,5,7,10,10a,10b,11,12,12a-tetradecahydrocyclopenta[5,6]naphtho[1,2-f]indazol-1-yl furan-2-carboxylate] | 8.66
7 | COCC(=O)O[C@]1(C(=O)SCC(C)=O)CC[C@H]2[C@@H]3CCC4=Cc5c(cnn5-c5ccc(F)cc5)C[C@]4(C)[C@H]3[C@@H](O)C[C@@]21C [Example 33, (1R,3aS,3bS,10aR,10bS,11S,12aS)-7-(4-Fluorophenyl)-11-hydroxy-10a,12a-dimethyl-1-{[(2-oxopropyl)thio]carbonyl}-1,2,3,3a,3b,4,5,7,10a,10 b,11,12,12a-tetradecahydrocyclopenta[5,6]naphtho[1,2-f]indazol-1-yl methoxyacetate] | 8.57
8 | C[C@]12Cc3cnn(-c4ccc(F)nc4)c3C=C1CC[C@H]1[C@@H]3CC[C@](OC(=O)c4cocn4)(C(=O)SCF)[C@@]3(C)C[C@H](O)[C@@]12F [Example 210, (1R,3aS,3bS,10aS,10bR,11S,12aS)-1-{[(Fluoromethyl)sulfanyl]carbonyl}-10b-fluoro-7-(6-fluoropyridin-3-yl)-11-hydroxy-10a,12a-dimethyl-1,2,3,3a,3b,4,5,7,10,10a,10b,11,12,12a-tetradecahydrocyclopenta[5,6]naphtho[1,2-f]indazol-1-yl 1,3-oxazole-4-carboxylate] | 8.70
9 | COCC(=O)O[C@]1(C(=O)SCCO)CC[C@H]2[C@@H]3CCC4=Cc5c(cnn5-c5ccc(F)cc5)C[C@]4(C)[C@H]3[C@@H](O)C[C@@]21C [Example 32, (1R,3aS,3bS,10aR,10bS,11S,12aS)-7-(4-Fluorophenyl)-11-hydroxy-1-{[(2-hydroxy-ethyl)thio]carbonyl}-10a,12a-dimethyl-1,2,3,3a,3b,4,5,7,10,10a,10b,11,12,12a-tetradecahydrocyclopenta[5,6]naphtho[1,2-f]indazol-1-yl methoxyacetate] | 8.80
10 | C[C@]12Cc3cnn(-c4ccc(F)cc4)c3C=C1CC[C@@H]1[C@@H]2[C@@H](O)C[C@@]2(C)[C@H]1CC[C@]2(OC(=O)c1nccs1)C(=O)SCCO [Example 40, (1R,3aS,3bS,10aR,10bS,11S,12aS)-7-(4-Fluorophenyl)-11-hydroxy-1-{[(2-hydroxy-ethyl)thio]carbonyl}-10a,12a-dimethyl-1,2,3,3a,3b,4,5,7,10,10a,10b,11,12,12a-tetradecahydrocyclopenta[5,6]naphtho[1,2-f]indazol-1-yl 1,3-thiazole-2-carboxylate] | 8.54
11 | CCC(=O)O[C@]1(C(=O)SC)CC[C@H]2[C@@H]3CCC4=Cc5c(cnn5-c5ccc(F)cc5)C[C@]4(C)[C@H]3[C@@H](O)C[C@@]21C [Example 21, (1R,3aS,3bS,10aR,10bS,11S,12aS)-7-(4-Fluorophenyl)-11-hydroxy-10a,12a-dimethyl-1-[(methylthio)carbonyl]-1,2,3,3a,3b,4,5,7,10,10a,10b,11,12,12a-tetradecahydropcyclopenta[5,6]naphtho[1,2-f]indazol-1-yl propanoate] | 8.57
12 | C[C@]12Cc3cnn(-c4ccc(F)nc4)c3C=C1CC[C@@H]1[C@@H]2[C@@H](O)C[C@@]2(C)[C@H]1CC[C@]2(OC(=O)C1CC1)C(=O)SCCO [Example 155, (1R,3aS,3bS,10aR,10bS,11S,12aS)-7-(6-Fluoropyridin-3-yl)-11-hydroxy-1-{[(2-hydroxyethyl)sulfanyl]carbonyl}-10a,12a-dimethyl-1,2,3,3a,3b,4,5,7,10,10a,10b,11,12,12a-tetradecahydrocyclopenta[5,6]naphtho[1,2-f]indazol-1-yl cyclopropanecarboxylate] | 8.72
13 | C[C@]12Cc3cnn(-c4ccc(F)cc4F)c3C=C1CC[C@@H]1[C@@H]2[C@@H](O)C[C@@]2(C)[C@H]1CC[C@]2(OC(=O)c1ccco1)C(=O)SCC#N [Example 101, (1R,3aS,3bS,10aR,10bS,11S,12aS)-1-{[(Cyanomethyl)thio]carbonyl}-7-(2,4-difluorophenyl)-11-hydroxy-10a,12a-dimethyl-1,2,3,3a,3b,4,5,7,10,10a,10b,11,12,12a-tetradecahydrocyclopenta[5,6]naphtho[1,2-f]indazol-1-yl furan-2-carboxylate] | 7.54
14 | CCC(=O)O[C@]1(C(=O)SCF)CC[C@H]2[C@@H]3CCC4=Cc5c(cnn5-c5ccc(F)cc5)C[C@]4(C)[C@H]3[C@@H](O)C[C@@]21C [Example 19, (1R,3aS,3bS,10aR,10bS,11S,12aS)-1-{[(Fluoromethyl)thio]carbonyl}-7-(4-fluoro-phenyl)-11-hydroxy-10a,12a-dimethyl-1,2,3,3a,3b,4,5,7,10,10a,10b,11,12,12a-tetradecahydrocyclopenta[5,6]naphtho[1,2-f]indazol-1-yl propanoate] | 8.43
15 | C[C@]12Cc3cnn(-c4ccc(F)nc4)c3C=C1CC[C@H]1[C@@H]3CC[C@](OC(=O)c4cocn4)(C(=O)SCC#N)[C@@]3(C)C[C@H](O)[C@@]12F [Example 209, (1R,3aS,3bS,10aS,1.0bR,11S,12aS)-1-{[(Cyanomethyl)sulfanyl]carbonyl}-10b-fluoro-7-(6-fluoropyridin-3-yl)-11-hydroxy-10a,12a-dimethyl-1,2,3,3a,3b,4,5,7,10,10a,10b,11,12,12a-tetradecahydrocyclopenta[5,6]naphtho[1,2-f]indazol-1-yl 1,3-oxazole-4-carboxylate] | 8.44
